Measurements as given in PubChem BioAssay (NCI).
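The compound was tested at five concentrations on cells cultured in 96-well plates, with a 48-hour exposure period. TGI marks complete inhibition of growth.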

Experiments:
Assay in all cases: inhibition of tumour cell growth, NCI panel, 48 h
786-0 renal = system: 786-0 renal
A498 renal = system: A498 renal
A549 NSCLC = system: A549 NSCLC
ACHN renal = system: ACHN renal
CAKI-1 renal = system: CAKI-1 renal
COLO 205 colon = system: COLO 205 colon
DLD-1 colon = system: DLD-1 colon
DMS 273 small cell lung = system: DMS 273 small cell lung
EKVX NSCLC = system: EKVX NSCLC
HCC-2998 colon = system: HCC-2998 colon
HCT-116 colon = system: HCT-116 colon
HCT-15 colon = system: HCT-15 colon
HOP-18 NSCLC = system: HOP-18 NSCLC
HOP-62 NSCLC = system: HOP-62 NSCLC
HOP-92 NSCLC = system: HOP-92 NSCLC
HT29 colon = system: HT29 colon
IGROV1 ovarian = system: IGROV1 ovarian
KM12 colon = system: KM12 colon
KM20L2 colon = system: KM20L2 colon
LOX IMVI melanoma = system: LOX IMVI melanoma
LXFL 529 NSCLC = system: LXFL 529 NSCLC
M14 melanoma = system: M14 melanoma
MALME-3M melanoma = system: MALME-3M melanoma
NCI-H226 lung = system: NCI-H226 lung
NCI-H23 lung = system: NCI-H23 lung
NCI-H460 lung = system: NCI-H460 lung
OVCAR-3 ovarian = system: OVCAR-3 ovarian
OVCAR-4 ovarian = system: OVCAR-4 ovarian
OVCAR-5 ovarian = system: OVCAR-5 ovarian
OVCAR-8 ovarian = system: OVCAR-8 ovarian
RPMI-8226 leukemia = system: RPMI-8226 leukemia
RXF 393 renal = system: RXF 393 renal
SF-268 CNS = system: SF-268 CNS
SF-295 CNS = system: SF-295 CNS
SF-539 CNS = system: SF-539 CNS
SK-MEL-2 melanoma = system: SK-MEL-2 melanoma
SK-MEL-28 melanoma = system: SK-MEL-28 melanoma
SK-OV-3 ovarian = system: SK-OV-3 ovarian
SN12C renal = system: SN12C renal
SNB-19 CNS = system: SNB-19 CNS
SNB-75 CNS = system: SNB-75 CNS
SNB-78 CNS = system: SNB-78 CNS
SR leukemia = system: SR leukemia
SW-620 colon = system: SW-620 colon
TK-10 renal = system: TK-10 renal
U251 CNS = system: U251 CNS
UACC-257 melanoma = system: UACC-257 melanoma
UACC-62 melanoma = system: UACC-62 melanoma
UO-31 renal = system: UO-31 renal
XF 498 CNS = system: XF 498 CNS
DMS 114 small cell lung = system: DMS 114 small cell lung
HL-60(TB) leukemia = system: HL-60(TB) leukemia
M19-MEL melanoma = system: M19-MEL melanoma
NCI-H522 lung = system: NCI-H522 lung
RXF-631 renal = system: RXF-631 renal

**Q.** With `CCOC(=O)C(=O)Nc1ccccc1C(F)(F)F` as the compound, how does the TGI (786-0 renal) read?
**A.** The TGI was over 100 µM.

**Q.** And the TGI (A498 renal)?
**A.** The TGI was over 100 µM.

**Q.** And the TGI (A549 NSCLC)?
**A.** Its TGI is over 100 µM.

**Q.** What about the TGI (ACHN renal) of the same compound?
**A.** Its TGI is over 100 µM.

**Q.** And the TGI (CAKI-1 renal)?
**A.** The TGI was over 100 µM.

**Q.** And the TGI (COLO 205 colon)?
**A.** The TGI was over 100 µM.

**Q.** What about the TGI (DLD-1 colon) of the same compound?
**A.** Its TGI is over 100 µM.

**Q.** And the TGI (DMS 273 small cell lung)?
**A.** Its TGI is over 100 µM.

**Q.** What about the TGI (EKVX NSCLC) of the same compound?
**A.** The TGI was over 100 µM.

**Q.** And the TGI (HCC-2998 colon)?
**A.** The TGI was over 100 µM.

**Q.** What about the TGI (HCT-116 colon) of the same compound?
**A.** The TGI was over 100 µM.

**Q.** And the TGI (HCT-15 colon)?
**A.** The TGI was over 100 µM.

**Q.** And the TGI (HOP-18 NSCLC)?
**A.** Its TGI is over 100 µM.

**Q.** What about the TGI (HOP-62 NSCLC) of the same compound?
**A.** The TGI was over 100 µM.

**Q.** What about the TGI (HOP-92 NSCLC) of the same compound?
**A.** The TGI was over 100 µM.

**Q.** What about the TGI (HT29 colon) of the same compound?
**A.** The TGI was over 100 µM.

**Q.** What about the TGI (IGROV1 ovarian) of the same compound?
**A.** Its TGI is over 100 µM.

**Q.** And the TGI (KM12 colon)?
**A.** Its TGI is over 100 µM.

**Q.** And the TGI (KM20L2 colon)?
**A.** Its TGI is over 100 µM.

**Q.** And the TGI (LOX IMVI melanoma)?
**A.** Its TGI is over 100 µM.

**Q.** What about the TGI (LXFL 529 NSCLC) of the same compound?
**A.** Its TGI is over 100 µM.

**Q.** What about the TGI (M14 melanoma) of the same compound?
**A.** The TGI was over 100 µM.

**Q.** And the TGI (MALME-3M melanoma)?
**A.** Its TGI is over 100 µM.

**Q.** What about the TGI (NCI-H226 lung) of the same compound?
**A.** The TGI was over 100 µM.

**Q.** What about the TGI (NCI-H23 lung) of the same compound?
**A.** Its TGI is over 100 µM.

**Q.** And the TGI (NCI-H460 lung)?
**A.** The TGI was over 100 µM.

**Q.** And the TGI (OVCAR-3 ovarian)?
**A.** The TGI was over 100 µM.

**Q.** What about the TGI (OVCAR-4 ovarian) of the same compound?
**A.** Its TGI is over 100 µM.

**Q.** What about the TGI (OVCAR-5 ovarian) of the same compound?
**A.** Its TGI is over 100 µM.

**Q.** What about the TGI (OVCAR-8 ovarian) of the same compound?
**A.** The TGI was over 100 µM.

**Q.** And the TGI (RPMI-8226 leukemia)?
**A.** The TGI was over 100 µM.

**Q.** And the TGI (RXF 393 renal)?
**A.** Its TGI is over 100 µM.

**Q.** And the TGI (SF-268 CNS)?
**A.** Its TGI is over 100 µM.

**Q.** And the TGI (SF-295 CNS)?
**A.** The TGI was over 100 µM.

**Q.** And the TGI (SF-539 CNS)?
**A.** Its TGI is over 100 µM.

**Q.** What about the TGI (SK-MEL-2 melanoma) of the same compound?
**A.** Its TGI is over 100 µM.

**Q.** What about the TGI (SK-MEL-28 melanoma) of the same compound?
**A.** Its TGI is over 100 µM.

**Q.** And the TGI (SK-OV-3 ovarian)?
**A.** The TGI was over 100 µM.

**Q.** And the TGI (SN12C renal)?
**A.** The TGI was over 100 µM.

**Q.** What about the TGI (SNB-19 CNS) of the same compound?
**A.** Its TGI is over 100 µM.

**Q.** What about the TGI (SNB-75 CNS) of the same compound?
**A.** The TGI was over 100 µM.

**Q.** What about the TGI (SNB-78 CNS) of the same compound?
**A.** The TGI was over 100 µM.

**Q.** And the TGI (SR leukemia)?
**A.** Its TGI is over 100 µM.

**Q.** What about the TGI (SW-620 colon) of the same compound?
**A.** Its TGI is over 100 µM.

**Q.** What about the TGI (TK-10 renal) of the same compound?
**A.** Its TGI is over 100 µM.

**Q.** What about the TGI (U251 CNS) of the same compound?
**A.** The TGI was over 100 µM.

**Q.** And the TGI (UACC-257 melanoma)?
**A.** The TGI was over 100 µM.

**Q.** And the TGI (UACC-62 melanoma)?
**A.** Its TGI is over 100 µM.

**Q.** What about the TGI (UO-31 renal) of the same compound?
**A.** The TGI was over 100 µM.

**Q.** What about the TGI (XF 498 CNS) of the same compound?
**A.** The TGI was over 100 µM.

**Q.** `CC1(Cc2ccccc2)NC(=S)NC1=O` (stereo not given) was tested. Which TGI (786-0 renal) did it give?
**A.** The TGI was over 100 µM.

**Q.** What about the TGI (A549 NSCLC) of the same compound?
**A.** The TGI was over 100 µM.

**Q.** And the TGI (ACHN renal)?
**A.** The TGI was over 100 µM.

**Q.** And the TGI (CAKI-1 renal)?
**A.** Its TGI is over 100 µM.

**Q.** What about the TGI (COLO 205 colon) of the same compound?
**A.** Its TGI is over 100 µM.

**Q.** And the TGI (DLD-1 colon)?
**A.** Its TGI is over 100 µM.

**Q.** What about the TGI (DMS 114 small cell lung) of the same compound?
**A.** Its TGI is over 100 µM.

**Q.** And the TGI (DMS 273 small cell lung)?
**A.** The TGI was over 100 µM.

**Q.** And the TGI (EKVX NSCLC)?
**A.** The TGI was over 100 µM.

**Q.** What about the TGI (HCC-2998 colon) of the same compound?
**A.** The TGI was over 100 µM.

**Q.** What about the TGI (HL-60(TB) leukemia) of the same compound?
**A.** Its TGI is over 100 µM.

**Q.** And the TGI (HOP-18 NSCLC)?
**A.** The TGI was 8.35 µM.

**Q.** What about the TGI (HOP-62 NSCLC) of the same compound?
**A.** The TGI was over 100 µM.

**Q.** And the TGI (HOP-92 NSCLC)?
**A.** The TGI was over 100 µM.

**Q.** What about the TGI (HT29 colon) of the same compound?
**A.** Its TGI is over 100 µM.

**Q.** What about the TGI (KM12 colon) of the same compound?
**A.** The TGI was over 100 µM.

**Q.** What about the TGI (KM20L2 colon) of the same compound?
**A.** The TGI was over 100 µM.

**Q.** What about the TGI (LOX IMVI melanoma) of the same compound?
**A.** Its TGI is over 100 µM.

**Q.** And the TGI (LXFL 529 NSCLC)?
**A.** Its TGI is over 100 µM.

**Q.** What about the TGI (M14 melanoma) of the same compound?
**A.** The TGI was over 100 µM.

**Q.** And the TGI (M19-MEL melanoma)?
**A.** Its TGI is over 100 µM.

**Q.** And the TGI (MALME-3M melanoma)?
**A.** The TGI was over 100 µM.

**Q.** What about the TGI (NCI-H226 lung) of the same compound?
**A.** The TGI was over 100 µM.

**Q.** What about the TGI (NCI-H23 lung) of the same compound?
**A.** The TGI was over 100 µM.

**Q.** What about the TGI (NCI-H460 lung) of the same compound?
**A.** The TGI was over 100 µM.

**Q.** What about the TGI (NCI-H522 lung) of the same compound?
**A.** The TGI was over 100 µM.

**Q.** What about the TGI (OVCAR-5 ovarian) of the same compound?
**A.** The TGI was over 100 µM.

**Q.** What about the TGI (OVCAR-8 ovarian) of the same compound?
**A.** Its TGI is over 100 µM.

**Q.** And the TGI (RXF 393 renal)?
**A.** Its TGI is over 100 µM.

**Q.** And the TGI (RXF-631 renal)?
**A.** The TGI was over 100 µM.

**Q.** What about the TGI (SF-268 CNS) of the same compound?
**A.** Its TGI is over 100 µM.

**Q.** What about the TGI (SF-295 CNS) of the same compound?
**A.** Its TGI is over 100 µM.

**Q.** And the TGI (SF-539 CNS)?
**A.** The TGI was over 100 µM.

**Q.** What about the TGI (SK-MEL-2 melanoma) of the same compound?
**A.** Its TGI is over 100 µM.

**Q.** What about the TGI (SK-MEL-28 melanoma) of the same compound?
**A.** The TGI was over 100 µM.

**Q.** And the TGI (SN12C renal)?
**A.** Its TGI is over 100 µM.

**Q.** And the TGI (SNB-19 CNS)?
**A.** The TGI was over 100 µM.

**Q.** What about the TGI (SNB-75 CNS) of the same compound?
**A.** The TGI was over 100 µM.

**Q.** What about the TGI (SNB-78 CNS) of the same compound?
**A.** The TGI was over 100 µM.

**Q.** And the TGI (SR leukemia)?
**A.** Its TGI is over 100 µM.

**Q.** And the TGI (SW-620 colon)?
**A.** The TGI was over 100 µM.

**Q.** And the TGI (TK-10 renal)?
**A.** Its TGI is over 100 µM.

**Q.** What about the TGI (U251 CNS) of the same compound?
**A.** Its TGI is over 100 µM.

**Q.** And the TGI (UACC-257 melanoma)?
**A.** The TGI was over 100 µM.

**Q.** What about the TGI (UO-31 renal) of the same compound?
**A.** Its TGI is over 100 µM.
